In US4705803A, “Method of improving resorption of injected antibacterially active substances or combinations” (Boehringer Ingelheim Vetmedica GmbH, priority 1982, dated 1987):

Experiments:
[1] = acute toxicity (LD50) in the mouse; conditions: in vivo, ip
From the text: For example, the acute toxicity (LD50) in the mouse is […]

[2] = maximum solubility in water
[3] = tested on: respiratory tract secretion; conditions: cited from earlier work; for concentration of solids in the fluid of the respiratory tract / quantity of secretion / viscosity of the secretion: human and veterinary medicine; for specific weight: solids/fluid of the respiratory tract
physchem = conditions: water

| Structure (SMILES) | LD50 [1] [mg/kg] | solubility [2] [µg/mL] | concentration of solids in the fluid of the respiratory tract [3] | quantity of secretion [3] | viscosity of the secretion [3] | specific weight [3] | solubility (physchem) [µg/mL] |
| --- | --- | --- | --- | --- | --- | --- | --- |
| Cl.Oc1c(Br)cc(Br)cc1CN[C@H]1CC[C@H](O)CC1 [Compound C, N-(3,5-dibromo-2-hydroxy-benzyl)-trans-4-hydroxycyclohexylamine hydrochloride] | > 800 | 100 to 1000 |  |  |  |  |  |
| Cl.Nc1c(Br)cc(Br)cc1CN[C@H]1CC[C@H](O)CC1 [Compound B, N-(2-amino,3,5-dibromo-benzyl)-trans-4-hydroxy-cyclohexylamine hydrochloride] | 268 |  | reduction | significant increase | decrease | reduction | 16600 |
| CN(Cc1cc(Br)cc(Br)c1N)C1CCCCC1.Cl [Compound A, N-(2-amino-3,5-dibromo-benzyl)-N-methyl-cyclohexylamine hydrochloride] | > 400 |  | reduction | significant increase | decrease | reduction | 200 to 5000 |
